Results as given in patent US12186331B2, “Compositions comprising at least one n-acetylated and at least one fucosylated oligosaccharide for use in the promotion of digestive capacity in infants and young children” (SOCIETE DES PRODUITS NESTLE S.A., priority 2017, dated 2025).
Entries after “also recorded” stand apart in the source; their conditions may differ.

Tested on: villi in the ileum of IUGR rats
Assay: Villi length in the ileum of young rats with intra-uterine growth retardation (IUGR) fed HMO-supplemented diet
Assay type: in vivo, Sprague-Dawley rats
Details: IUGR rat pups, 3 g/kg body weight by gavage d7-d21, 4.5% in diet d22-d57, sacrifice at day 57, compared with IUGR group and other groups
From the text: Three groups of time-mated pregnant Sprague-Dawley female rats were bought from Charles River laboratories. One group was submitted to food restriction of 60% during the last 10 days of gestation and their offspring were cross-fostered to normally fed rats. A second group of pregnant females was normally fed and their offspring cross-fostered among the same group of dams. […] Normal-weight offspring born from unrestricted dams and fed a normal non-supplemented diet; • IUGR group (negative control; n=20): IUGR rats being fed a normal diet after birth; • IUGR rats+HMO (test groups): During the experiment, they were reared by their mothers for 21 days and supplemented with HMOs (2FL, LNnT or the Mix of 2FL and LNnT). At weaning, they were fed a diet supplemented with the same HMOs, see details below. […] All rat pups were fed from birth (d=1) up to 57 days (d=57) based on the following protocol: • d1 to d6: all groups of rats were nursed by dam (mothers' milk only); • d7 to d21: all rats were nursed by dam (mothers' milk only). But in the test groups, 3 g/kg body weight of HMO were also administered by gavage: • 3 g/kg body weight of 2FL, for the IUGR/2FL group; • 3 g/kg body weight of LNnT, for the IUGR/LNnT group; • 3 g/kg body weight of a mix of LNnT and 2FL at a 1:2 weight ratio, for the IUGR/HMOs mix group; • […] to […]: all rats were fed a diet as detailed in Table 2 below. Rats were sacrificed at day 57 after a 6-hr fasting period and samples of the small intestine were collected. The length of the villi was measured on a sample of the ileum. One 1-cm sample from the ileum (1 cm cranial from caecum) was collected and flushed with PBS (Sigma D8537). This section was fixed and processed accordingly for histological and morphometric analysis. Two consecutive 4 μm-thick sections of fixed tissue were stained manually with hematoxylin and eosin to determine villus height. […] Ten randomly selected villi were measured in two different segments to determine the mean villi length.

Compound	mean villi length in the ileum	mean villi length in the ileum (listed as 2-FL)
CC(=O)N[C@H]1[C@H](O[C@H]2[C@@H](O)[C@@H](CO)O[C@@H](O[C@H]3[C@H](O)[C@@H](O)C(O)O[C@@H]3CO)[C@@H]2O)O[C@H](CO)[C@@H](O[C@@H]2O[C@H](CO)[C@H](O)[C@H](O)[C@H]2O)[C@@H]1O (mixture of isomers) [LNnT, lacto-N-neotetraose]	neither 2FL, nor LNnT achieved a statistically significant effect when used alone; also recorded: no significant difference with the IUGR group	–
2′-fucosyllactose [2FL]	neither 2FL, nor LNnT achieved a statistically significant effect when used alone	no significant difference with the IUGR group
